Data on three compounds can be found in ChEMBL document CHEMBL1201862, “PubChem BioAssay data set” (2004).

Series [1] deals with Serine/threonine-protein kinase PLK3 (Homo sapiens, UniProt Q9H4B4). It counts as functional.
Series [2] has as its target Mitogen-activated protein kinase 13 (Homo sapiens, UniProt O15264). It counts as functional.
For series [3], the target named is Mitogen-activated protein kinase 14 (Homo sapiens, UniProt Q16539). It counts as functional.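 Note: part of a kinome-wide panel, MAPK14 entry.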
Series [4] addresses Tyrosine-protein kinase Lck (Homo sapiens, UniProt P06239). In kind it is functional.
In series [5] the target is Platelet-derived growth factor receptor beta (Homo sapiens, UniProt P09619). In kind it is functional.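 Note: value comes from a kinome panel, with PDGFRB tested as one panel member.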
Series [6] deals with Mast/stem cell growth factor receptor Kit (Homo sapiens, UniProt P10721). In kind it is functional.
Another series concerns the target Aurora kinase B (Homo sapiens, UniProt Q96GD4). It counts as functional.
In series [7] the target is Megakaryocyte-associated tyrosine-protein kinase (Homo sapiens, UniProt P42679). In kind it is functional.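 Note: affinity measured as one member of a kinase panel (Navigating the Kinome) against MATK.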
Chain of Megakaryocyte-associated tyrosine-protein kinase (P42679 whole entry): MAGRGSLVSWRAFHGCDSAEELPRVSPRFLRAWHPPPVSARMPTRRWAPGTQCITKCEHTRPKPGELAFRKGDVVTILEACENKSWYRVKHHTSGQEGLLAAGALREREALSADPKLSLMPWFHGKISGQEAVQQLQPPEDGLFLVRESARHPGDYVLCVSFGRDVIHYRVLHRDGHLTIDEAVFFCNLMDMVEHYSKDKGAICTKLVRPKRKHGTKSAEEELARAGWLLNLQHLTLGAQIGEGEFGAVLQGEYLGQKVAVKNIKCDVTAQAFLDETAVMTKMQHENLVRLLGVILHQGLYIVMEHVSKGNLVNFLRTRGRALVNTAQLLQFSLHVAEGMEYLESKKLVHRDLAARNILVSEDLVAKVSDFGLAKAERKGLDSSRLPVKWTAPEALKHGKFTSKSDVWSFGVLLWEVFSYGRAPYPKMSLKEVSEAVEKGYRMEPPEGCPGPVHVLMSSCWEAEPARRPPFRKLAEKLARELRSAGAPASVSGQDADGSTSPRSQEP
Series [8] concerns the target Leukocyte tyrosine kinase receptor (Homo sapiens, UniProt P29376). The experiment in a line: Navigating the Kinome. Panel member name: LTK. It counts as functional.
Series [9] has as its target Serine/threonine-protein kinase pim-1 (Homo sapiens, UniProt P11309). It counts as functional.
Series [10] has as its target Testis-specific serine/threonine-protein kinase 2 (Homo sapiens, UniProt Q96PF2). In kind it is functional.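 Note: part of the Navigating the Kinome panel, target entry STK22B.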
In series [11] the target is Cyclin-dependent kinase 7 (Homo sapiens, UniProt P50613). In kind it is functional.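 Note: value comes from a kinome-wide kinase profiling panel in which CDK7 is one member.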
In series [12] the target is Leucine-rich repeat serine/threonine-protein kinase 2 (Homo sapiens, UniProt Q5S007). It counts as functional.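 Note: value from a broad kinome-wide panel profiling study in which LRRK2 was one of the kinases tested.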
Chain of Leucine-rich repeat serine/threonine-protein kinase 2 (Q5S007 whole entry): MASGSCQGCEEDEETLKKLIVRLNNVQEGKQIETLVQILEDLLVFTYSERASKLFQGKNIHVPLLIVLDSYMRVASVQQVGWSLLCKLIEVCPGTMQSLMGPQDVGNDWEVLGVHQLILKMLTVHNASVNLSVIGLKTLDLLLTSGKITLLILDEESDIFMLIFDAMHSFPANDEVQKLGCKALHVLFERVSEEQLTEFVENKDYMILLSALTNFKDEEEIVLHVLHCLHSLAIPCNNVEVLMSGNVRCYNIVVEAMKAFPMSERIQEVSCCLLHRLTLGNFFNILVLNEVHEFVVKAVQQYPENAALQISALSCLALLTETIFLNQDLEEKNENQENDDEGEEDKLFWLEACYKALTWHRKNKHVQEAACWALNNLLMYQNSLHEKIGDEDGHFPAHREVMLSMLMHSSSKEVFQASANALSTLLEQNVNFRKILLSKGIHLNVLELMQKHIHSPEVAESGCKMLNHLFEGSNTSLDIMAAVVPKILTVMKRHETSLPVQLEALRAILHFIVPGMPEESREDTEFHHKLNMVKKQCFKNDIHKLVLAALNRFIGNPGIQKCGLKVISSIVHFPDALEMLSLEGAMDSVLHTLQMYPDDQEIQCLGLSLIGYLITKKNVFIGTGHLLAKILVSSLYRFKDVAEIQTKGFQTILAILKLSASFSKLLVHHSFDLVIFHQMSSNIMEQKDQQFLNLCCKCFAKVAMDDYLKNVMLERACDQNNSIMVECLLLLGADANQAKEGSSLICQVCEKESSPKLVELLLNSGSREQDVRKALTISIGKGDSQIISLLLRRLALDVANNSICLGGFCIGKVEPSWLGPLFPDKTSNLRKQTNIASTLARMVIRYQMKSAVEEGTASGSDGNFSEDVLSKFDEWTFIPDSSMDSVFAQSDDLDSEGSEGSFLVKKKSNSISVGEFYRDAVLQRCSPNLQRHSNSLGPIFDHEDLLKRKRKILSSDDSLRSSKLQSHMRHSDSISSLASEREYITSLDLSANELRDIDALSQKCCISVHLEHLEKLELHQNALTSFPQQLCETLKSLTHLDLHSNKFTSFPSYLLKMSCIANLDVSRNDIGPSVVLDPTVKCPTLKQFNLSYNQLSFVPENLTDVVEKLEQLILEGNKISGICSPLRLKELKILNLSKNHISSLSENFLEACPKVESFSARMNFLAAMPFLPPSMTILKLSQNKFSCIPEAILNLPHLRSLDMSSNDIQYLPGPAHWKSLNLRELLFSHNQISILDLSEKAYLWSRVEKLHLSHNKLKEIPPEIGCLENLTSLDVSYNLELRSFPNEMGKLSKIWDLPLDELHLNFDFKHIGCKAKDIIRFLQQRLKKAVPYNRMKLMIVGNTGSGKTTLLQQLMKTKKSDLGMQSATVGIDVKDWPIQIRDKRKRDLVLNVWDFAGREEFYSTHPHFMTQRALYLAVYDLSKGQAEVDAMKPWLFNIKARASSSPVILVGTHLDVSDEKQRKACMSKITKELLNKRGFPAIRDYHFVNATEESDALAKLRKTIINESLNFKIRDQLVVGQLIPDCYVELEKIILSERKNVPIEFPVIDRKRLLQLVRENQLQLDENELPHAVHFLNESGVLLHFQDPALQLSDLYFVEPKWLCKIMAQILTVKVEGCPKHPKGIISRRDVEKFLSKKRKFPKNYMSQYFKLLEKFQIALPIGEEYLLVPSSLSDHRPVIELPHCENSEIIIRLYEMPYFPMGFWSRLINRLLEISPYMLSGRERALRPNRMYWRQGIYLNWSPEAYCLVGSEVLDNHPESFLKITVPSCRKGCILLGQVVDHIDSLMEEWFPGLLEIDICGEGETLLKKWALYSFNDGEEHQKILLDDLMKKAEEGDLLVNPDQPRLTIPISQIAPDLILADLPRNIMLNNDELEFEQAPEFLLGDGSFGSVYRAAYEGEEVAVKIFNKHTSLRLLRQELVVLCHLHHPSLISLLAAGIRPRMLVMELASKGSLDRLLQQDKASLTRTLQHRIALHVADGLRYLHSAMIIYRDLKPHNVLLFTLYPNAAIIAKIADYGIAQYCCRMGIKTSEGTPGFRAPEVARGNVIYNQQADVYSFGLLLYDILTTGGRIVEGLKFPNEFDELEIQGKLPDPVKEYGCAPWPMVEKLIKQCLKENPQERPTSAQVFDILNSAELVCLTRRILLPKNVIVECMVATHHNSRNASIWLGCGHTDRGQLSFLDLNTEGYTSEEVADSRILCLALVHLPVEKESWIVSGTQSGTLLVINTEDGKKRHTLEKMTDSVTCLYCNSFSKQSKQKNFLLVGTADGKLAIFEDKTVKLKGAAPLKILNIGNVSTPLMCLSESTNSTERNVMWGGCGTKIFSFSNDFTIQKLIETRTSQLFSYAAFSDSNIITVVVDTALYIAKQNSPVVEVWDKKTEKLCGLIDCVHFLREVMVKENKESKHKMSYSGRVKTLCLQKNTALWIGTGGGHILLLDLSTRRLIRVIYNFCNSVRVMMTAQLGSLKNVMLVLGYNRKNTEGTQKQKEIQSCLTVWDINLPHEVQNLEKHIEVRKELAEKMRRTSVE
Series [13] has as its target Mitogen-activated protein kinase 12 (Homo sapiens, UniProt P53778). It counts as functional.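 Note: measured as one member of a kinome-wide kinase profiling panel.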
Series [14] has as its target RAC-gamma serine/threonine-protein kinase (Homo sapiens, UniProt Q9Y243). In kind it is functional.
The target of series [15] is Homeodomain-interacting protein kinase 2 (Homo sapiens, UniProt Q9H2X6). It counts as functional.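 Note: measured within a kinome-wide kinase profiling panel, HIPK2 being one panel member.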
Chain of Homeodomain-interacting protein kinase 2 (Q9H2X6 whole entry): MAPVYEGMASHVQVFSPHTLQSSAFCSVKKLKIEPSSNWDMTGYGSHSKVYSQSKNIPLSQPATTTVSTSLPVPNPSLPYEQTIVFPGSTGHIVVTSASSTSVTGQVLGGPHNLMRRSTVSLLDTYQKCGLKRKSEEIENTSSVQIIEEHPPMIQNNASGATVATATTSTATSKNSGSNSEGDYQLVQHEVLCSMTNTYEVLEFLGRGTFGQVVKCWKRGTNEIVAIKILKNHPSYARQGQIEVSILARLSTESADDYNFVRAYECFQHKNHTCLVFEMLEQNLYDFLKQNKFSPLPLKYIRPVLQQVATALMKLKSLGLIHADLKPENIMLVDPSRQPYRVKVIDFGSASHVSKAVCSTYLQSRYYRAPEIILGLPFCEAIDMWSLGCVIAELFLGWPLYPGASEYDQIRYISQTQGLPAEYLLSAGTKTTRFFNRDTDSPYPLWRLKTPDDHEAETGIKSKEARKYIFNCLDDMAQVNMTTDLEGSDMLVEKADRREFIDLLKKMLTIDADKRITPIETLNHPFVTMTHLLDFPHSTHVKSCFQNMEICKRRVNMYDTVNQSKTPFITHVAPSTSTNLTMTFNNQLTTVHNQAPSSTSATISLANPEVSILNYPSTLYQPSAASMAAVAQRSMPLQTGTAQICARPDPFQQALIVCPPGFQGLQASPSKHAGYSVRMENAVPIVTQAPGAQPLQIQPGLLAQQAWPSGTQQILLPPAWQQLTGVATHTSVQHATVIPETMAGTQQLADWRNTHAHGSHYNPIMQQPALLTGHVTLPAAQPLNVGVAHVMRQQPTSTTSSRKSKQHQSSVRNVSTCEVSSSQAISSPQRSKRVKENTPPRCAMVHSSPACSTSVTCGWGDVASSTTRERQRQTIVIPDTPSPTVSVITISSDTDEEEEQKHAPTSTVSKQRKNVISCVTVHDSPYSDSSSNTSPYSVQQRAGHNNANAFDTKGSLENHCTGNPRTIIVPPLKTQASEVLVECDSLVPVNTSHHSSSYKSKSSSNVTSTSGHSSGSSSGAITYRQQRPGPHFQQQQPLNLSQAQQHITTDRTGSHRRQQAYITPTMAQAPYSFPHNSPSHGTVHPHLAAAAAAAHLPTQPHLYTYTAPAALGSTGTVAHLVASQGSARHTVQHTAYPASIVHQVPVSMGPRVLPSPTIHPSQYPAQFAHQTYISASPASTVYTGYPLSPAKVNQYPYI
Series [16] deals with Mitogen-activated protein kinase kinase kinase kinase 2 (Homo sapiens, UniProt Q12851). It counts as functional.
The target of series [17] is Protein kinase C gamma type (Homo sapiens, UniProt P05129). In kind it is functional.
The target of series [18] is Protein-tyrosine kinase 6 (Homo sapiens, UniProt Q13882). It counts as functional.
Another series addresses Insulin receptor (Homo sapiens, UniProt P06213). In kind it is functional.
Series [19] concerns the target Serine/threonine-protein kinase Nek4 (Homo sapiens, UniProt P51957). It counts as functional.
The target of series [20] is Tyrosine-protein kinase JAK3 (Homo sapiens, UniProt P52333). In kind it is functional.
Series [21] deals with Glycogen synthase kinase-3 alpha (Homo sapiens, UniProt P49840). It counts as functional.
For the next series, the target named is Ephrin type-A receptor 2 (Homo sapiens, UniProt P29317). In kind it is functional.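 Note: EPHA2 tested as one member of a kinome-wide kinase panel.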
Series [22] has as its target MAP kinase-interacting serine/threonine-protein kinase 2 (Homo sapiens, UniProt Q9HBH9). It counts as functional.
For series [23], the target named is Proto-oncogene tyrosine-protein kinase receptor Ret (Homo sapiens, UniProt P07949). It counts as functional.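 Note: measured within a kinome-wide profiling panel, RET as the panel member.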
The target in series [24] is Dual specificity tyrosine-phosphorylation-regulated kinase 4 (Homo sapiens, UniProt Q9NR20). It counts as functional.
For series [25], the target named is Dual specificity protein kinase CLK2 (Homo sapiens, UniProt P49760). In kind it is functional.
The target in series [26] is Receptor tyrosine-protein kinase erbB-4 (Homo sapiens, UniProt Q15303). In kind it is functional.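 Note: ERBB4 member of a kinome-wide kinase profiling panel.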
For series [27], the target named is Vascular endothelial growth factor receptor 2 (Homo sapiens, UniProt P35968). In kind it is functional.
A further series deals with T1, Cysteine protease ATG4B (Homo sapiens, UniProt Q9Y4P1).
T1 sequence (Q9Y4P1 whole entry): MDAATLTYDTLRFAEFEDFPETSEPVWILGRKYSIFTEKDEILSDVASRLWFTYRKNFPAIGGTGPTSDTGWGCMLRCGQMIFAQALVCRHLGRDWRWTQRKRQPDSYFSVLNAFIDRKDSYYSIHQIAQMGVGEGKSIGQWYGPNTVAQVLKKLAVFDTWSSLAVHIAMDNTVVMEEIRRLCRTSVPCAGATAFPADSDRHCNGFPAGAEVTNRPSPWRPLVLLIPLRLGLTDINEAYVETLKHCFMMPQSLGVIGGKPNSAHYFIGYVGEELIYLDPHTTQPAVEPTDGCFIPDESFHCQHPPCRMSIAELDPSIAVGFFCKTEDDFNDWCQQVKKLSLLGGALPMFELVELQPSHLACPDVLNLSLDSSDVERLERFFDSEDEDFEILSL
It counts as functional.

A short description of series [28]: inhibitors of SNCA 5'UTR-driven reporter translation, confirmation, H4 neuroglioma cells, luminescence (AID 1988). It counts as functional, cell-based.
The test system of another series is INS1. Description: beta cell apoptosis inhibitors, cytokine rescue, dose response, luminescence, retest (AID 449756).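 Note: cell death triggered by IL-1 beta plus TNF-alpha plus IFN-gamma mixture; protective hits raise ATP signal compared with cytokine alone wells.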 The following applies: Rattus norvegicus. It counts as functional, cell-based.
A further series deals with Phospholipase A2 (Homo sapiens, UniProt P04054). In kind it is functional.
Chain of Phospholipase A2 (P04054 whole entry): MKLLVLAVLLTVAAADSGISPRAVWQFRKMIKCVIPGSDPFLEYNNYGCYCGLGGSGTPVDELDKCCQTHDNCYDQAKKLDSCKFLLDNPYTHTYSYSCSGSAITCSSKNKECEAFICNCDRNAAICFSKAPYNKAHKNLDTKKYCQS
The subject of the next series is HEK293. The experiment in a line: cells. To be noted: Homo sapiens. It counts as functional, cell-based.
Series [29] concerns the target Envelope glycoprotein gp160 (Human immunodeficiency virus 1, UniProt Q6QLK5). Description: inhibitors of HIV fusion peptide binding, primary screen, biochemical, uHTS, fluorescence dequenching (AID 1986).
Series [30] deals with 1-acylglycerol-3-phosphate O-acyltransferase ABHD5/Perilipin-5 (Homo sapiens, UniProt Q00G26+Q8WTS1). Description: Luminescence-based biochemical high throughput dose response assay for inhibitors of the interaction of the lipase co-activator protein, abhydrolase domain containing 5 (ABHD5) with perilipin-5 (MLDP; PLIN5) (2K validation set). [Related pubchem assays (depositor defined):AID493035, AID493241].

Series [31] is described as follows: NIH-3T3 fibroblast cytotoxicity, dose response, cytotoxicity control, cell-based, fluorescence, Alamar Blue, secondary assay (AID 2327).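 Note: NIH-3T3 mouse fibroblasts cultured with fluconazole at 8 µg/mL.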 It counts as functional. (In general: Resazurin is reduced to fluorescent resorufin, in cell work by metabolically active cells.)
The nature of series [32]: CellTiter-Glo luminescent dose response of DLD-1 viability loss (AID 1117352). In kind it is functional. On the technique in general: Cellular ATP, detected with luciferase, serves as a proxy for viable cell number.
Another series addresses Cytochrome P450 2D6 (Homo sapiens, UniProt P10635).
Series [33] can be described thus: cytotoxicity toward HT-29 cells – cell-based, CellTiter-Glo luminescence, IC50, dose response (AID 1117330). It counts as functional.

Molecules are shown by their SMILES. Activity calls are given as the source filed them.

Chain of Serine/threonine-protein kinase pim-1 (P11309 whole entry): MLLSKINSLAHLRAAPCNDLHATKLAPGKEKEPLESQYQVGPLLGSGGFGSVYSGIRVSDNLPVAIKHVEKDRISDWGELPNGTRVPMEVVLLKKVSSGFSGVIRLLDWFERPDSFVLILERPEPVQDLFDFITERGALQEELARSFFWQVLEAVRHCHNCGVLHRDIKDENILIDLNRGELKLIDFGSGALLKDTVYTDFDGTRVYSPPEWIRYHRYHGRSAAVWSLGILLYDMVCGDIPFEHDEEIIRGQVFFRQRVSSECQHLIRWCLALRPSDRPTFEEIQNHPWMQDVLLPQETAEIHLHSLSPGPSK
Chain of Mitogen-activated protein kinase 13 (O15264 whole entry): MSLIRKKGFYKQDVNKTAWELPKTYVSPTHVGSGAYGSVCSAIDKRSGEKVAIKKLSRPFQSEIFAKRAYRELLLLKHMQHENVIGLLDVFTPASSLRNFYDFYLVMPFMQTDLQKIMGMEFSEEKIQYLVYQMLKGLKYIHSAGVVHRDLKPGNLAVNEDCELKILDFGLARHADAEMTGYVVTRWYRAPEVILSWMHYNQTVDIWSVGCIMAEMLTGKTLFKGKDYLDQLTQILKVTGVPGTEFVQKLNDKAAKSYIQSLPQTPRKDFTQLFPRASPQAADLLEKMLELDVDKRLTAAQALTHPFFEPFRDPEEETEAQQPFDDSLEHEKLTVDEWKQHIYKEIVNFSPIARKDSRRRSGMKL

For the compound `N#Cc1ccc2[nH]c(O)c(-c3ccc(CN4CCOCC4)cn3)c2c1` [AZD-1080], the Ki (as a rule, a dissociation constant, usually derived from enzyme kinetics or from competition with a known ligand) is > 7.94 µM (inactive) in series [1]; > 7.94 µM (inactive) in series [2]; > 3.98 µM (inactive) in series [3]; > 5.01 µM (inactive) in series [4]; > 2 µM (inactive) in series [5]; > 1.26 µM (inactive) in series [6]. Besides, the Ki was > 3.16 µM (inactive) at Aurora kinase B; > 2 µM (inactive) in [7]; > 2.51 µM (inactive) in series [8]; > 5.01 µM (inactive) in [9]; > 1.58 µM (inactive) in series [10]; 1 µM (active) in [11]. The Ki in [12] is > 2.51 µM (inactive); in series [13] it was > 6.31 µM (inactive); in series [14], > 10 µM (inactive); in series [15] it was > 3.16 µM (inactive); in series [16], > 3.98 µM (inactive); in series [17] it was > 7.94 µM (inactive). Besides, the Ki in [18] was > 2.51 µM (inactive); at Insulin receptor it was > 5.01 µM (inactive); in series [19] it was > 6.31 µM (inactive); in series [20], > 3.98 µM (inactive); in [21] it was > 2.51 µM (inactive); on Ephrin type-A receptor 2, > 3.16 µM (inactive). In addition, the Ki is > 10 µM (inactive) in series [22]; > 2.51 µM (inactive) in series [23]; > 7.94 µM (inactive) in series [24]; > 5.01 µM (inactive) in [25]; > 3.98 µM (inactive) in series [26]; > 2.51 µM (inactive) in series [27].

Take `O=C1C=C(N2CCOCC2)c2ccccc2C1=O`: the half-inhibitory concentration (IC50) – broadly, the point on the concentration scale where inhibition reaches its midpoint – at Cysteine protease ATG4B was 7.07 µM (active); at Phospholipase A2, > 80 µM (inactive); with HEK293, 13.6 µM (active). Further, in series [28], the concentration giving a half-maximal response (EC50) – broadly, the concentration that produces a half-maximal response – was 8.41 µM (active). Further, in the series on INS1, the AC50 (usually the concentration at which the activity in the assay is half-maximal) is 4.72 µM (active).

Consider `CCc1oc2ccccc2c1C(=O)c1cc(Br)c(O)c(Br)c1` [BENZBROMARONE], for which the IC50 in series [29] was 12.8 µM (active); in series [30] it was 18.8 µM (inactive); in series [32] it was 0.268 µM (active); in series [33], 1.14 µM (active). For the same compound, the EC50 in [31] was > 160 µM (inactive). For the same compound, at Cytochrome P450 2D6, the AC50 result was “inactive”.
